Experimental data: patent US10882882B2, “Post fermented tea-derived kaempferol-based compound” (AMOREPACIFIC CORPORATION, priority 2016, dated 2021)

Target: T1, beta amyloid (Aβ1-42) (Homo sapiens, UniProt P05067)
T1 construct: beta amyloid (Aβ1-42, AnaSpec Inc, USA); purchased AnaSpec Inc, USA
Experiment: Inhibition of beta amyloid aggregation, fluorescence analysis (ThioflavinT assay)
Assay type: biochemical
Conditions: for Increased RFU (% of Pos. Cont.): Pos. Cont. (beta amyloid only) = 100; for inhibition of beta amyloid aggregation as compared with the positive control group: positive control (only beta amyloid, no compound) taken as 100%
Procedure: The effect of kaempferol3-O-[2-O″-(E)-p-coumaroyl][beta-D-glucopyranosyl-(1→3)-O-alpha-L-rhamnopyranosyl-(1→6)-O-beta-D-glucopyranoside] on inhibition of beta amyloid aggregation was confirmed by the fluorescence analysis (ThioflavinT assay). Specifically, beta amyloid (Aβ1-42, AnaSpec Inc, USA) was obtained and used at a concentration of 0.1 mg/ml and stored at −80° C. before use. Morin (20 μM), phenol red (20 μM), and kaempferol3-O-[2-O″-(E)-p-coumaroyl][beta-D-glucopyranosyl-(1→3)-O-alpha-L-rhamnopyranosyl-(1→6)-O-beta-D-glucopyranoside] (1 mg/ml) were respectively diluted with DMSO so as to be adjusted to the concentrations. In order to specify the degree of inhibition of Aβ1-42 aggregation, each of the compounds prepared at the above concentrations was diluted with 50 μL of 0.01 M sodium phosphate buffer solution to have a concentration of 10 μM, then 40 μL of 0.1 mg/ml of Aβ1-42 was added thereto, and then 10 μl of 2 mM thioflavinT was added thereto, and fluorescence was measured using a fluorescence spectrometer (RF-5300PC, SHIMADZU CORPORATION, Japan) at 37° C. for 150 minutes at intervals of 5 minutes. In the above table, “RFU” denotes the relative fluorescence unit, and “Increased RFU” denotes the amount of aggregated beta amyloid, and “Increased RFU (% of Pos.Cont.)” denotes the percentage value of the amount of aggregated beta amyloid with respect to that of the positive control group. “Novel substance 33” denotes kaempferol3-O-[2-O″-(E)-p-coumaroyl][beta-D-glucopyranosyl-(1→3)-O-alpha-L-rhamnopyranosyl-(1→6)-O-beta-D-glucopyranoside].

[1] = compound 10 μM, Aβ1-42 0.1 mg/ml, 37° C., 150 minutes

T1 sequence (P05067 672-713 limits assumed): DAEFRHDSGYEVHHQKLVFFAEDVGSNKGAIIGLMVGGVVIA

Increased RFU (% of Pos. Cont.) [1] [%] | Increased RFU (amount of aggregated beta amyloid) (compound 10 μM, Aβ1-42 0.1 mg/ml, thioflavinT, 37° C., 150 minutes) [RFU] | inhibition of beta amyloid aggregation as compared with the positive control group [%] | Structure (SMILES)
78.6 | 11471 | 21.4 | O=c1c(O)c(-c2ccc(O)cc2O)oc2cc(O)cc(O)c12 [Morin]
93.6 | – | 6.4 | O=S1(=O)OC(c2ccc(O)cc2)(c2ccc(O)cc2)c2ccccc21 [Phenol Red]
